{"source": "paper PMC12955902", "about": "(Advanced Science, 2025)", "key": {"SaHU": {"biological_target": "T1, SaHU (Staphylococcus aureus, UniProt Q99U17)", "T1 sequence (Q99U17 1-90)": "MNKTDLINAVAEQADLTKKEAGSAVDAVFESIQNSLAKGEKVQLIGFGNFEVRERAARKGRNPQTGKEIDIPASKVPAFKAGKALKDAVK", "experiment": "microscale thermophoresis", "type": "binding"}, "[1]": {"biological_target": "T2, HU protein of M. tuberculosis (Mycobacterium tuberculosis, UniProt P9WMK7)", "T2 construct": "gene hupB", "T2 sequence (P9WMK7 2-216)": "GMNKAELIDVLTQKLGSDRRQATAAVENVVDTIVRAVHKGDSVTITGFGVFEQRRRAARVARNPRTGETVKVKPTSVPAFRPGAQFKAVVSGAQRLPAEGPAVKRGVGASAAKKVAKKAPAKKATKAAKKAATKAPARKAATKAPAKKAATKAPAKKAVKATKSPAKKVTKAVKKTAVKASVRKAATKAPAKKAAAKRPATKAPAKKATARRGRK"}, "[2]": {"biological_target": "T3, HU protein of S. pyogenes (Streptococcus pyogenes, UniProt Q5XB35)", "T3 construct": "gene hup", "T3 sequence (Q5XB35 whole entry)": "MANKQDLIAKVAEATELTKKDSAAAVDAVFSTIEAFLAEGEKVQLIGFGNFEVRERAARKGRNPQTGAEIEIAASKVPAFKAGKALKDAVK", "experiment": "WaterLOGSY NMR", "type": "binding", "conditions": "10 µM HU, 400 µM compound; 50 mM NaCl, 20 mM Tris, pH 7.4, 5% DMSO, 10% D2O, 298 K"}}}
{"smiles": "O=C(/C=C/c1ccccc1)NO", "note": "[CHA]", "values": [{"measurement": "Kd", "setting": "SaHU", "result": "5.77 ± 0.93", "unit": "µM"}]}
{"smiles": "O=C(/C=C/c1cccc(S(=O)(=O)Nc2ccccc2)c1)NO", "note": "[Belinostat]", "values": [{"measurement": "Kd", "setting": "SaHU", "result": "4.24 ± 0.24", "unit": "µM"}, {"measurement": "WaterLOGSY NMR", "setting": "[1]", "result": "including A. baumannii, S. pneumoniae, B. subtilis, M. tuberculosis and S. pyogenes"}, {"measurement": "WaterLOGSY NMR", "setting": "[2]", "result": "including A. baumannii, S. pneumoniae, B. subtilis, M. tuberculosis and S. pyogenes"}]}
